Biological target: T1, P70S6K (T412E mutant, Millipore) (Homo sapiens, UniProt P23443, T412E)
T1 construct: purchased Millipore
Assay: p70S6K enzyme assay
Assay type: biochemical
Settings: Table 1; 3 nM P70S6K, 24 μM ATP, 90 min at 25° C.; read-out: p70S6K inhibition (IC50)
Summary of the method: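 T412E-mutant P70S6K (3 nM) with 24 μM ATP and 1 μM FITC-AHA-AKRRRLSSLRA-OH S6-derived peptide in 100 mM Hepes pH 7.5, 5 mM MgCl2, 1 mM DTT, 0.015% Brij; 90 min at 25° C, EDTA stop. Phosphorylated product and substrate peptide separated and quantified by microfluidic capillary electrophoresis (Caliper LabChip 3000).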

T1 sequence (P23443 whole entry T412E): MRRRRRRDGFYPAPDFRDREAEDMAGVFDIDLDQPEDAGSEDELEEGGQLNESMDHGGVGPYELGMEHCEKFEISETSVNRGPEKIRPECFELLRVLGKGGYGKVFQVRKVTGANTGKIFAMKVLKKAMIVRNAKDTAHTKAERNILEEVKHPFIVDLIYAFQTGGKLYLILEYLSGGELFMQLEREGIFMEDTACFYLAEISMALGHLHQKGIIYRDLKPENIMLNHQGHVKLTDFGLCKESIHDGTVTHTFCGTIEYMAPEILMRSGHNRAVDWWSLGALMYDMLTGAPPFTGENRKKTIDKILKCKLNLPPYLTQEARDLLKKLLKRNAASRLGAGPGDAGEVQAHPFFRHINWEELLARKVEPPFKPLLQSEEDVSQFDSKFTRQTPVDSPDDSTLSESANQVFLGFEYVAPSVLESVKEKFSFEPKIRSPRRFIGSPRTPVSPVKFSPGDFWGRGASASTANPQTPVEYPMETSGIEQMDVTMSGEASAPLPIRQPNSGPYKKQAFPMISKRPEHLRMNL

| IC50 [nM] | Compound |
| --- | --- |
| < 100 | O=C(NCCc1cccc(F)c1)c1sccc1Nc1ncnc2[nH]ccc12 [Example 142, 3-(7H-Pyrrolo[2,3-d]pyrimidin-4-ylamino)-thiophene-2-carboxylic acid [2-(3-fluoro-phenyl)-ethyl]-amide] |
| < 100 | O=C(NCCc1ccccc1)c1sccc1Nc1ncnc2[nH]ccc12 [Example 143, 3-(7H-Pyrrolo[2,3-d]pyrimidin-4-ylamino)-thiophene-2-carboxylic acid phenethyl-amide] |
| 100 to 1000 | CC(C)(C)OC(=O)N1CCCC(NC(=O)c2sccc2Nc2ncnc3[nH]ccc23)C1 (centres unmarked) [Example 154, 3-{[3-(7H-Pyrrolo[2,3-d]pyrimidin-4-ylamino)-thiophene-2-carbonyl]-amino}-piperidine-1-carboxylic acid tert-butyl ester] |

Same assay, conditions: class symbol; 3 nM P70S6K, 24 μM ATP; read-out: IC50 (p70S6K)

| IC50 [nM] | Compound |
| --- | --- |
| < 100 | O=C(NCCNCc1ccc(F)c(Cl)c1)c1sccc1Nc1ccnc2[nH]ccc12 [Example 63, 3-(1H-Pyrrolo[2,3-b]pyridin-4-ylamino)-thiophene-2-carboxylic acid [2-(3-chloro-4-fluoro-benzylamino)-ethyl]-amide] |
| < 100 | COc1ccc(C(CN)NC(=O)c2ccsc2Nc2ccnc3[nH]ccc23)cc1OC (centres unmarked) [Example 110, 2-(1H-Pyrrolo[2,3-b]pyridin-4-ylamino)-thiophene-3-carboxylic acid [2-amino-1-(3,4-dimethoxy-phenyl)-ethyl]-amide] |
| < 100 | O=C(NCCc1cccc(Cl)c1)c1sccc1Nc1ncnc2[nH]ccc12 [Example 182, 3-(7H-Pyrrolo[2,3-d]pyrimidin-4-ylamino)-thiophene-2-carboxylic acid [2-(3-chloro-phenyl)-ethyl]-amide] |
| 100 to 1000 | COc1ccccc1C(CN(C)C)NC(=O)c1sccc1Nc1ccnc2[nH]ccc12 (centres unmarked) [Example 158, 3-(1H-Pyrrolo[2,3-b]pyridin-4-ylamino)-thiophene-2-carboxylic acid [2-dimethylamino-1-(2-methoxy-phenyl)-ethyl]-amide] |
| 100 to 1000 | O=C(NC1CCCNC1)c1sccc1Nc1ccnc2[nH]ccc12 (centres unmarked) [Example 9, 3-(1H-Pyrrolo[2,3-b]pyridin-4-ylamino)-thiophene-2-carboxylic acid piperidin-3-ylamide] |
| < 100 | O=C(Nc1cccc(CNC(=O)c2sccc2Nc2ccnc3[nH]ccc23)c1)c1ccc(F)cc1 [Example 100, 3-(1H-Pyrrolo[2,3-b]pyridin-4-ylamino)-thiophene-2-carboxylic acid 3-(4-fluoro-benzoylamino)-benzylamide] |
| 100 to 1000 | CCOC(=O)CCNC(=O)c1sccc1Nc1ccnc2[nH]ccc12 [Example 33, 3-{[3-(1H-Pyrrolo[2,3-b]pyridin-4-ylamino)-thiophene-2-carbonyl]-amino}-propionic acid ethyl ester] |
| 100 to 1000 | CC(C)[C@@H](CO)NC(=O)c1sccc1Nc1ccnc2[nH]ccc12 [Example 96, 3-(1H-Pyrrolo[2,3-b]pyridin-4-ylamino)-thiophene-2-carboxylic acid ((S)-1-hydroxymethyl-2-methyl-propyl)-amide] |
| < 100 | [N-]=[N+]=NCC(NC(=O)c1sccc1Nc1ccnc2[nH]ccc12)c1ccccc1 (centres unmarked) [Example 76, 3-(1H-Pyrrolo[2,3-b]pyridin-4-ylamino)-thiophene-2-carboxylic acid (2-azido-1-phenyl-ethyl)-amide] |
| 100 to 1000 | O=C(NC(CO)C(=O)NCc1ccc(Cl)c(C(F)(F)F)c1)c1sccc1Nc1ccnc2[nH]ccc12 (centres unmarked) [Example 89, 3-(1H-Pyrrolo[2,3-b]pyridin-4-ylamino)-thiophene-2-carboxylic acid [1-(4-chloro-3-trifluoromethyl-benzylcarbamoyl)-2-hydroxy-ethyl]-amide] |
| < 100 | O=C(NCc1cccc(Cl)c1)c1sccc1Nc1ccnc2[nH]ccc12 [Example 30, 3-(1H-Pyrrolo[2,3-b]pyridin-4-ylamino)-thiophene-2-carboxylic acid 3-chloro-benzylamide] |
| < 100 | CNCC(NC(=O)c1sccc1Nc1ccnc2[nH]ccc12)c1ccccc1 (centres unmarked) [Example 169, 3-(1H-Pyrrolo[2,3-b]pyridin-4-ylamino)-thiophene-2-carboxylic acid (2-methylamino-1-phenyl-ethyl)-amide] |
| < 100 | O=C(NCCc1cccs1)c1sccc1Nc1ccnc2[nH]ccc12 [Example 21, 3-(1H-Pyrrolo[2,3-b]pyridin-4-ylamino)-thiophene-2-carboxylic acid (2-thiophen-2-yl-ethyl)-amide] |
| < 100 | O=C(NCCNCc1ccccc1OC(F)(F)F)c1sccc1Nc1ccnc2[nH]ccc12 [Example 48, 3-(1H-Pyrrolo[2,3-b]pyridin-4-ylamino)-thiophene-2-carboxylic acid [2-(2-trifluoromethoxy-benzylamino)-ethyl]amide] |
| < 100 | O=C(NCCc1ccc(F)cc1)c1sccc1Nc1ncnc2[nH]ccc12 [Example 179, 3-(7H-Pyrrolo[2,3-d]pyrimidin-4-ylamino)-thiophene-2-carboxylic acid [2-(4-fluoro-phenyl)-ethyl]-amide] |
| < 100 | NCC(NC(=O)c1sccc1Nc1ccnc2[nH]ccc12)c1ccccc1 (centres unmarked) [Example 77, 3-(1H-Pyrrolo[2,3-b]pyridin-4-ylamino)-thiophene-2-carboxylic acid (2-amino-1-phenyl-ethyl)-amide] |

| IC50 [nM] | Compound |
| --- | --- |
| < 100 | COc1ccc(CCNC(=O)c2sccc2Nc2ccnc3[nH]ccc23)cc1 [Example 28, 3-(1H-Pyrrolo[2,3-b]pyridin-4-ylamino)-thiophene-2-carboxylic acid [2-(4-methoxy-phenyl)-ethyl]-amide] |
| 100 to 1000 | CC(O)CNC(=O)c1sccc1Nc1ccnc2[nH]ccc12 (centres unmarked) [Example 11, 3-(1H-Pyrrolo[2,3-b]pyridin-4-ylamino)-thiophene-2-carboxylic acid (2-hydroxy-propyl)-amide] |
| 100 to 1000 | O=C(NCCS(=O)(=O)Cc1ccccc1)c1sccc1Nc1ccnc2[nH]ccc12 [Example 69, 3-(1H-Pyrrolo[2,3-b]pyridin-4-ylamino)-thiophene-2-carboxylic acid (2-phenylmethanesulfonyl-ethyl)-amide] |
| < 100 | COc1cccc([C@@H](CN)NC(=O)c2sccc2Nc2ccnc3[nH]ccc23)c1 (stereo in doubt) [Example 123, 3-(1H-Pyrrolo[2,3-b]pyridin-4-ylamino)-thiophene-2-carboxylic acid [2-amino-1-(3-methoxy-phenyl)-ethyl]-amide] |
| < 100 | COc1cccc(CNCCNC(=O)c2sccc2Nc2ccnc3[nH]ccc23)c1 [Example 49, 3-(1H-Pyrrolo[2,3-b]pyridin-4-ylamino)-thiophene-2-carboxylic acid [2-(3-methoxy-benzylamino)-ethyl]-amide] |
| < 100 | NC[C@@H](NC(=O)c1sccc1Nc1ccnc2[nH]ccc12)c1ccccc1 [Example 170, 3-(1H-Pyrrolo[2,3-b]pyridin-4-ylamino)-thiophene-2-carboxylic acid ((S)-2-amino-1-phenyl-ethyl)-amide] |
| < 100 | O=C(NCCNCc1ccc(C(F)(F)F)cc1)c1sccc1Nc1ccnc2[nH]ccc12 [Example 52, 3-(1H-Pyrrolo[2,3-b]pyridin-4-ylamino)-thiophene-2-carboxylic acid [2-(4-trifluoromethyl-benzylamino)-ethyl]-amide] |
| < 100 | COc1cccc(C(CN(C)C)NC(=O)c2sccc2Nc2ccnc3[nH]ccc23)c1 (centres unmarked) [Example 160, 3-(1H-Pyrrolo[2,3-b]pyridin-4-ylamino)-thiophene-2-carboxylic acid [2-dimethylamino-1-(3-methoxy-phenyl)-ethyl]-amide] |
| < 100 | O=C(Nc1cccc(CNC(=O)c2sccc2Nc2ccnc3[nH]ccc23)c1)c1ccnc(N2CCOCC2)c1 [Example 164, 2-Morpholin-4-yl-N-[3-({[3-(1H-pyrrolo[2,3-b]pyridin-4-ylamino)-thiophene-2-carbonyl]-amino}-methyl)-phenyl]-isonicotinamide] |
| < 100 | COc1ccccc1CNCCNC(=O)c1sccc1Nc1ccnc2[nH]ccc12 [Example 60, 3-(1H-Pyrrolo[2,3-b]pyridin-4-ylamino)-thiophene-2-carboxylic acid [2-(2-methoxy-benzylamino)-ethyl]-amide] |
| < 100 | O=C(NCCc1cccc(F)c1)c1sccc1Nc1ccnc2[nH]ccc12 [Example 22, 3-(1H-Pyrrolo[2,3-b]pyridin-4-ylamino)-thiophene-2-carboxylic acid [2-(3-fluoro-phenyl)-ethyl]-amide] |
| < 100 | COc1ccc(CNCCNC(=O)c2sccc2Nc2ccnc3[nH]ccc23)cc1 [Example 40, 3-(1H-Pyrrolo[2,3-b]pyridin-4-ylamino)-thiophene-2-carboxylic acid [2-(4-methoxy-benzylamino)-ethyl]-amide] |
| < 100 | O=C(Nc1ccc(Cl)cc1)c1sccc1Nc1ccnc2[nH]ccc12 [Example 35, 3-(1H-Pyrrolo[2,3-b]pyridin-4-ylamino)-thiophene-2-carboxylic acid (4-chloro-phenyl)-amide] |
| < 100 | Nc1cccc(CNC(=O)c2sccc2Nc2ccnc3[nH]ccc23)c1 [Example 87, 3-(1H-Pyrrolo[2,3-b]pyridin-4-ylamino)-thiophene-2-carboxylic acid 3-amino-benzylamide] |
| < 100 | Cc1ccc(C(CN)NC(=O)c2ccsc2Nc2ccnc3[nH]ccc23)cc1 (centres unmarked) [Example 126, 2-(1H-Pyrrolo[2,3-b]pyridin-4-ylamino)-thiophene-3-carboxylic acid (2-amino-1-p-tolyl-ethyl)-amide] |
| 100 to 1000 | COC(=O)C(CO)NC(=O)c1sccc1Nc1ccnc2[nH]ccc12 (centres unmarked) [Example 85, 3-Hydroxy-2-{[3-(1H-pyrrolo[2,3-b]pyridin-4-ylamino)-thiophene-2-carbonyl]-amino}-propionic acid methyl ester] |

Source: US9023847B2, “Azaheterocyclic compounds” (Merck Patent GmbH, priority 2009, dated 2015)
